Test results: US11840686B2, “Modulation of prekallikrein (PKK) expression” (Ionis Pharmaceuticals, Inc., priority 2013, dated 2023)
Strand notation (5' to 3'): a small letter for the sugar, then the base; units joined by * are phosphorothioate-linked, units joined directly phosphodiester-linked; [ ] holds rarer units or linkages, { } end groups; capitals alone tell only the bases. e = 2'-O-(2-methoxyethyl) (MOE); [5mC] = 5-methylcytosine; d = 2'-deoxy (DNA)

System: human PKK mRNA
Experiment: Antisense inhibition of human PKK mRNA in HepaRG cells, 5,000 nM (Example 2)
Format: cell-based
How it was run: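 qRT-PCR (RTS3454) read-out, RIBOGREEN-normalized; % inhibition vs untreated cells. HepaRG, 20,000 cells/well, electroporation, 5,000 nM ASO, ~24 h.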

[1] = Table 8, HepaRG cells, electroporation with 5,000 nM antisense oligonucleotide, approx. 24 hours, PKK mRNA by RT-PCR (RTS3454), relative to untreated control cells
[2] = Table 9 experiment, HepaRG cells, 20,000 cells per well, electroporation with 5,000 nM antisense oligonucleotide, approx. 24 hours, PKK mRNA by RT-PCR (RTS3454), relative to untreated control cells
[3] = Table 10 experiment, HepaRG cells, 20,000 cells per well, electroporation with 5,000 nM antisense oligonucleotide, approx. 24 hours, PKK mRNA by RT-PCR (RTS3454), relative to untreated control cells
[4] = human PKK mRNA, HepaRG cells, 5-10-5 motif oligonucleotides targeting SEQ ID NO: 1 and 10
[5] = Table 13, human PKK mRNA in HepaRG cells, 5-10-5 gapmers
[6] = HepaRG cells, electroporation, 5,000 nM antisense oligonucleotide, approx. 24 hours, primer probe set RTS3454, relative to untreated control cells, Table 12
[7] = HepaRG cells, electroporation, 5,000 nM antisense oligonucleotide, approx. 24 hours, primer probe set RTS3454, relative to untreated control cells, Table 11
[8] = Table 7, HepaRG cells, electroporation with 5,000 nM antisense oligonucleotide, approx. 24 hours, PKK mRNA by RT-PCR (RTS3454), relative to untreated control cells
[9] = human PKK mRNA in HepaRG cells, 5-10-5 gapmers, Table 14
[10] = HepaRG cells, 5,000 nM antisense oligonucleotide, 5-10-5 gapmers, Table 17
[11] = HepaRG cells, 5,000 nM antisense oligonucleotide, 5-10-5 gapmers, Table 16
[12] = human PKK mRNA, HepaRG cells, 5,000 nM antisense oligonucleotide, Table 18

Substance: 547430 (e[5mC]*eA*eA*eT*e[5mC]*dT*d[5mC]*dA*dA*dA*dG*dA*dG*dT*dA*eA*e[5mC]*e[5mC]*eA*eG; antisense) [compound 547430]
- % inhibition [1]: 70%

Substance: 547477 (antisense eT*e[5mC]*eT*eT*e[5mC]*dA*dT*dT*dT*dG*dT*dT*dA*d[5mC]*d[5mC]*eA*eA*eA*eG*eG) [compound 547477]
- % inhibition [2]: 74%
- % inhibition [3]: 68%

Substance: 547668 (e[5mC]*eA*eA*e[5mC]*eT*dA*dT*dA*dA*d[5mC]*dA*dG*dT*dA*dT*e[5mC]*eA*e[5mC]*eT*eG; antisense) [compound 547668]
- % inhibition [4]: 44%

Substance: 546817 (eG*e[5mC]*eT*e[5mC]*eT*dG*dA*dG*d[5mC]*d[5mC]*dT*dT*d[5mC]*d[5mC]*dG*e[5mC]*e[5mC]*eT*e[5mC]*eT; antisense) [compound 546817]
- % inhibition [5]: 77%

Substance: 547567 (eT*e[5mC]*e[5mC]*eA*e[5mC]*dT*d[5mC]*d[5mC]*dT*dA*dA*dG*dA*dA*dG*eT*eA*eT*eG*eG; antisense) [compound 547567]
- % inhibition [5]: 60%

Substance: 546498 (e[5mC]*e[5mC]*eA*eT*eG*d[5mC]*dA*dT*dA*d[5mC]*dT*d[5mC]*dG*d[5mC]*d[5mC]*eT*eT*eT*eG*eT; antisense) [compound 546498]
- % inhibition [6]: 65%

Substance: 547563 (eG*eT*eG*eG*eG*dA*dT*d[5mC]*dA*dG*dA*dG*dA*dA*dT*eG*eA*e[5mC]*eT*eA; antisense) [compound 547563]
- % inhibition [5]: 48%

Substance: 547517 (antisense eT*eA*eG*eG*eA*dT*dG*d[5mC]*dA*dA*dA*dG*dA*dA*dG*eA*eT*eG*e[5mC]*e[5mC]) [compound 547517]
- % inhibition [7]: 57%

Substance: 547421 (e[5mC]*eA*eT*e[5mC]*e[5mC]*dA*dT*dA*dG*dA*dT*dA*dA*dT*d[5mC]*eT*eT*eA*eA*eG; antisense) [compound 547421]
- % inhibition [1]: 69%

Substance: 546895 (eT*eA*eT*e[5mC]*eA*d[5mC]*dT*dG*dT*d[5mC]*d[5mC]*dT*dA*dT*dG*eT*e[5mC]*eA*e[5mC]*eT; antisense) [compound 546895]
- % inhibition [4]: 77%

Substance: 547389 (e[5mC]*eA*eG*eA*eT*dA*dT*dG*dG*dT*dG*dT*dT*dT*dT*e[5mC]*eT*eT*eG*eA; antisense) [compound 547389]
- % inhibition [8]: 61%

Substance: 546844 (eG*eT*e[5mC]*e[5mC]*eT*dA*dT*dA*dT*d[5mC]*dA*d[5mC]*dT*dG*dT*e[5mC]*e[5mC]*eT*eA*eT; antisense) [compound 546844]
- % inhibition [5]: 75%

Substance: 546444 (e[5mC]*e[5mC]*eA*eG*eA*dA*dT*d[5mC]*dA*dT*dG*d[5mC]*d[5mC]*dT*dT*eG*eT*eG*eG*eG; antisense) [compound 546444]
- % inhibition [6]: 61%

Substance: 547469 (antisense eT*eT*eA*e[5mC]*e[5mC]*d[5mC]*dA*dA*d[5mC]*dA*dG*dT*dT*dG*dG*eT*eA*eT*eA*eA) [compound 547469]
- % inhibition [2]: 67%
- % inhibition [3]: 50%

Substance: 546296 (antisense eG*eA*eA*eG*e[5mC]*d[5mC]*d[5mC]*dA*dT*d[5mC]*dA*dA*dA*dG*d[5mC]*eA*eG*eT*eG*eG) [compound 546296]
- % inhibition [1]: 27%

Substance: 547614 (antisense e[5mC]*e[5mC]*eT*eA*eT*dA*dT*d[5mC]*dA*d[5mC]*dT*dG*dT*dA*d[5mC]*e[5mC]*eT*eG*eT*eA) [compound 547614]
- % inhibition [9]: 81%

Substance: 546365 (antisense eA*eG*eA*e[5mC]*eT*d[5mC]*dT*dG*dG*dA*d[5mC]*dT*dG*d[5mC]*dT*eT*e[5mC]*eT*e[5mC]*eA) [compound 546365]
- % inhibition [7]: 64%

Substance: 547746 (eG*eT*eT*eG*eG*dT*dG*dG*d[5mC]*dG*dG*dG*dA*dT*d[5mC]*eG*eG*eT*eG*eG; antisense) [compound 547746]
- % inhibition [10]: 0%

Substance: 546177 (antisense eT*eG*eT*e[5mC]*e[5mC]*dA*dG*dA*dA*dA*d[5mC]*dT*dG*d[5mC]*dA*e[5mC]*e[5mC]*eT*eG*eT) [compound 546177]
- % inhibition (HepaRG cells, electroporation with 5,000 nM antisense oligonucleotide, approximately 24 hours, PKK mRNA by RT-PCR (RTS3454), relative to untreated control cells, Table 6 experiment): 75%

Substance: 546893 (e[5mC]*eA*e[5mC]*eT*eG*dT*d[5mC]*d[5mC]*dT*dA*dT*dG*dT*d[5mC]*dA*e[5mC]*eT*eG*eT*eA; antisense) [compound 546893]
- % inhibition [4]: 70%

Substance: 546856 (eA*eA*e[5mC]*eT*eA*dT*dA*dA*d[5mC]*dA*dG*dT*dA*dT*d[5mC]*eA*e[5mC]*eT*eG*eT; antisense) [compound 546856]
- % inhibition [9]: 54%

Substance: 547534 (antisense eA*eT*e[5mC]*eT*eG*dA*d[5mC]*dT*dA*dG*dT*dG*dA*dA*dT*eG*eG*e[5mC]*eT*eT) [compound 547534]
- % inhibition [6]: 72%

Substance: 547466 (antisense eG*eT*eA*eT*eA*dA*dA*dT*dT*dG*dT*dG*d[5mC]*dT*dT*eG*eT*eG*eT*e[5mC]) [compound 547466]
- % inhibition [2]: 82%
- % inhibition [3]: 43%

Substance: 547397 (eG*eT*eT*e[5mC]*eA*dG*dG*dT*dA*dA*dA*dG*dT*dT*d[5mC]*eT*eT*eT*eT*eG; antisense) [compound 547397]
- % inhibition [8]: 27%

Substance: 546244 (eT*eA*eA*eA*eT*dT*dT*dT*dA*dG*dA*dA*dT*dG*dG*e[5mC]*eA*eG*eG*eG; antisense) [compound 546244]
- % inhibition [8]: 27%

Substance: 547302 (antisense e[5mC]*e[5mC]*eA*eT*eG*dT*d[5mC]*dA*dT*dT*dG*dA*dT*dT*dG*eA*eA*e[5mC]*eT*eT) [compound 547302]
- % inhibition (HepaRG cells, electroporation with 5,000 nM antisense oligonucleotide, approximately 24 hours, PKK mRNA by RT-PCR (RTS3454), relative to untreated control cells, Table 5 experiment): 58%

Substance: 547526 (antisense eG*e[5mC]*eG*eA*e[5mC]*d[5mC]*dT*d[5mC]*dG*d[5mC]*dA*dT*dT*dG*dT*e[5mC]*eA*eG*e[5mC]*e[5mC]) [compound 547526]
- % inhibition [7]: 59%

Substance: 547592 (eT*e[5mC]*e[5mC]*eT*eA*dT*dA*dA*d[5mC]*dT*dA*dT*dA*dA*d[5mC]*eA*eG*eT*eA*eT; antisense) [compound 547592]
- % inhibition [9]: 27%

Substance: 546700 (eT*eG*eG*eT*eT*d[5mC]*d[5mC]*d[5mC]*dT*dA*dG*d[5mC]*dG*dG*dT*e[5mC]*e[5mC]*eA*eG*eA; antisense) [compound 546700]
- % inhibition [6]: 78%

Substance: 547684 (antisense eT*eA*eA*e[5mC]*eT*dA*dT*dA*dT*d[5mC]*dA*d[5mC]*dT*dG*dT*e[5mC]*e[5mC]*eT*eA*eT) [compound 547684]
- % inhibition [11]: 43%

Substance: 548759 (antisense eA*eA*e[5mC]*eA*dG*dT*dA*dT*d[5mC]*dA*d[5mC]*dT*dG*eT*eA*e[5mC]*eT) [compound 548759]
- % inhibition [12]: 68%

Substance: 546266 (eA*e[5mC]*eA*eG*eT*d[5mC]*dT*dT*d[5mC]*dT*dG*dG*dG*dA*dG*eT*eA*eA*eA*eG; antisense) [compound 546266]
- % inhibition [1]: 63%

Substance: 547486 (antisense eT*eG*e[5mC]*eA*eA*dA*d[5mC]*dT*dA*dA*dG*dG*dG*dA*d[5mC]*e[5mC]*eA*e[5mC]*e[5mC]*eT) [compound 547486]
- % inhibition [2]: 89%
- % inhibition [3]: 78%

Substance: 547436 (antisense e[5mC]*eT*e[5mC]*e[5mC]*e[5mC]*d[5mC]*dA*dA*dG*dA*dA*dG*dA*dG*dT*eT*eT*eG*eT*eT) [compound 547436]
- % inhibition [1]: 0%

Substance: 546808 (eA*eA*eA*eA*eT*dG*dA*d[5mC]*dA*d[5mC]*d[5mC]*dA*dA*dA*dA*eT*eT*e[5mC]*eG*e[5mC]; antisense) [compound 546808]
- % inhibition [5]: 0%

Substance: 546224 (antisense eT*eA*eG*eA*eA*dT*dG*dT*dA*dA*dA*dG*dA*dA*dG*eA*eG*eG*e[5mC]*eA) [compound 546224]
- % inhibition [8]: 65%

Substance: 548766 (antisense eT*eA*eT*eA*dT*d[5mC]*dA*d[5mC]*dT*dG*dT*d[5mC]*d[5mC]*eT*eA*eT*eA) [compound 548766]
- % inhibition [12]: 36%

Substance: 548718 (DNA eT*eA*e[5mC]*dT*dA*dG*dT*dT*dT*d[5mC]*d[5mC]*dT*dA*eT*eA*eA*e[5mC]; antisense) [compound 548718]
- % inhibition (HepaRG cells, 5,000 nM antisense oligonucleotide, human PKK mRNA, Table 18): 0%

Substance: 547431 (e[5mC]*eA*eG*eT*eG*dT*dT*dA*d[5mC]*dA*d[5mC]*dA*dA*dT*d[5mC]*eT*e[5mC]*eA*eA*eA; antisense) [compound 547431]
- % inhibition [1]: 67%

Substance: 547710 (antisense eT*eG*e[5mC]*eG*eG*dT*dT*dA*dT*dA*dT*dG*dG*dG*d[5mC]*eT*eG*eA*eA*eG) [compound 547710]
- % inhibition [11]: 85%

Substance: 546233 (eA*eT*eG*eG*eT*dG*dT*dT*dT*dT*d[5mC]*dT*dT*dG*dA*eG*eG*eA*eG*eT; antisense) [compound 546233]
- % inhibition [8]: 69%

Substance: 547723 (eT*eA*eG*eA*eA*dT*dG*dG*d[5mC]*dA*dG*dG*dG*dT*dT*e[5mC]*eT*eG*eT*eG; antisense) [compound 547723]
- % inhibition [10]: 53%
